Structures are written as SMILES.

Consider nine compounds from patent publication US20250108064A1, “PHOSPHATE PRODRUGS OF CANNABINOIDS” (priority 2021, published 2025).

One data set is described as follows: physchem. The data set is classed as physicochemical. The following applies: aqueous buffer, kinetic from dmso stock, PBS pH 7.0-7.3, 1% DMSO, 25° C.; for solubility: nephelometry, 90 min. The protocol: General Experimental: Nephelometry experiments were performed using untreated Corning® Costar® 96-well black polystyrene plates with clear flat bottoms. Sample stock solutions and serial dilutions were prepared with DriSolv® DMSO purchased from MilliporeSigma. All 100-fold dilutions and replicate experiments were prepared using Gibco® Dulbecco's phosphate-buffered saline (DPBS, no calcium, no magnesium) with a pH range of 7.0-7.3 as aqueous media. […] Nephelometry data was obtained using a NEPHELOstar® microplate reader and processed with MARS data analysis software from BMG LabTech.
Procedure for Nephelometry Experiments: Tested compounds were dissolved in 100% DMSO to make stock solutions of specified concentrations, ranging from 10 mM minimum up to 50 mM maximum. The sample then underwent serial dilution in a 96-well plate (Corning® Costar®). Well A1 of the plate contained 100% DMSO. […] Using a 12 channel multichannel pipette, 2.5 μL of sample from row A was transferred to each well in row B through row H of the plate. Next, 30 μL of PBS (pH=7.0-7.3) was added to row B through row H, providing each well with 32.5 μL. The plate was then incubated for 30 sec with shaking. Finally, 217.5 μL of PBS buffer was added to row B through row H, and the entire plate was incubated with shaking at 25° C. for 90 min. Note: The final volume of DMSO in actual experiments with PBS buffer was 1% throughout the plate. After 90 min, the 96-well plate was analyzed with a NEPHELOstar® instrument and the data was processed with MARS data analysis software.

Data set [1] in a line: Liver microsome stability assay (HLM). The class given is in vitro ADME. The following applies: human, microsomes, pH 7.4; 3 μM test compound, NADPH; read-out: T½ in HLM. The protocol:
General Experimental: Human and mouse liver microsomes were purchased from Xenotech at 20 mg/mL. NADPH (Sigma-Aldrich) 10 mM stocks were prepared in deionized water.
Procedure for Liver Microsome Stability Assay: Test compounds and positive controls were dissolved in 100% DMSO to make 10 mM stock solutions. Verapamil (Sigma-Aldrich) and diphenhydramine (Sigma-Aldrich) were used as positive controls for both human liver microsomes (HLM) and mouse liver microsomes (MLM). The 10 mM stock solutions of test and control compounds were further diluted in potassium phosphate buffer (100 mM, pH 7.4) to 500 μM to ensure that the organic solvent content was <0.2%. The liver microsome (HLM or MLM) assay was prepared in a 1.5 mL Eppendorf tube with a final volume of 1100 μL for duplicate runs. Each reaction contained phosphate buffer (928.4 μL), liver microsomes (55 μL), and test compound (6.6 μL of 500 μM), resulting in a final concentration of 3 μM for the test compound. The reaction was initiated with 110 μL of 10 mM NADPH. Aliquots (100 μL) were removed in duplicate at 0, 5, 10, 15, and 30 min and quenched in […] of 100% cold methanol which contained internal standard (ISTD: d5-7-ethoxy coumarin 2 μM). The aliquots were centrifuged at 12,000 g for 5 min, and the supernatant was transferred and placed in an LC-MS vial. Each time point was assessed by LC-MS/MS, and the area under the m/z curve (AUC), based on the MRM transition, was integrated w.r.t the ISTD. Positive controls were conducted at a final volume of 550 μL to enable a single run for each time point. Negative controls in the absence of NADPH were performed with the test and control compounds, respectively, at a final volume of 150 μL and measured at the most prolonged time point. Control compounds were processed and analyzed like test compounds. Each time point was run in triplicates on LC-MS/MS followed by in-between blank washes to avoid the carryover and to equilibrate the column. Half-life (T1/2) was calculated using the data obtained from LC-MS/MS and by plotting ln (% remaining of the parent prodrug) versus time and performing linear regression to determine slope. Slope=−k and T1/2=0.693/k for first-order kinetics.

Data set [2] in a line: Plasma stability assay (human plasma). The settings on record: 37° C.; for half-life: read-out: T½ in human plasma (converted). The class given is in vitro ADME. The protocol: General Experimental: Procaine and Procainamide were purchased from Sigma-Aldrich. Human plasma was obtained from BioIVT (Cat. No. […]2N) and 1X Dulbecco's PBS (pH 7.4, Gibco) was obtained from Thermos Fischer. Stock solutions were prepared in 100% DMSO, and suitable dilutions of target analytes were prepared in methanol for method development.
Procedure for Plasma Stability Assay: Test compounds were dissolved in DMSO to make a stock solution of 10 mM and then diluted to 500 μM in buffer (or 70% MeOH). Human plasma was thawed at ambient temperature and is aliquoted ([…]) to a 1.5 mL Eppendorf tube in duplicates (A and B) for each compound. Plasma was incubated at 37° C. for 10 minutes in an incubator shaker at 150 rpm; the reaction was initiated by the addition of the test compound (6.0 μL) and vortex mixing. The total reaction volume was 1000 μL where the final organic solvent concentrations were 0.6% MeOH and 0.03% DMSO. The spiked plasma samples were incubated at 37° C. for 4 hrs. The reactions were terminated at time points 0, 15, 30, 60, 120, 180, and 240 min by taking a 100 μL aliquot from the test incubation mixture and immediately quenching it in ice-cold acetonitrile containing internal standard (150 μL with 2 μM ISTD), followed by a quick vortex mixing. In addition, matrix blank was prepared by adding acetonitrile solutions containing ISTD to plasma samples without any of the analytes or control compounds. Also, an additional tube was made to measure compound degradation in PBS buffer. The samples were centrifuged at 15000 rpm for 25 min at 4° C. The supernatant was transferred to an LC-MS vial for analysis by LC/MS-MS. Each time point was run in duplicates followed by in-between blank washes to avoid the carryover and to equilibrate the column. Half-life (T1/2) was calculated using the data obtained from LC-MS/MS and by plotting ln (% remaining of the parent prodrug) versus time and performing linear regression to determine slope. Slope=−k and T1/2=0.693/k for first-order kinetics.
These positive controls were run in parallel to test the systems for competency.

For the compound `C=C(C)[C@@H]1CCC(C)=C[C@H]1c1c(O)cc(CCCCC)cc1OC(=O)C1(OP(=O)(O)OCCOC)CC1.N` [14i, 1-((((1′R,2′R)-6-hydroxy-5′-methyl-4-pentyl-2′-(prop-1-en-2-yl)-1′,2′,3′,4′-tetrahydro-[1,1′-biphenyl]-2-yl)oxy)carbonyl)cyclopropyl (2-methoxyethyl) phosphate ammonium salt], in the data set “physchem”, the solubility was more than 500 µM. The values for the half-life in data set [1] and in data set [2] were 0.317 h and more than 4 h, respectively.

In turn, `C=C(C)[C@@H]1CCC(C)=C[C@H]1c1c(O)cc(CCCCC)cc1OC(=O)C1(OP(=O)(O)OCCOCCOC)CC1.N` [14j, 1-((((1′R,2′R)-6-hydroxy-5′-methyl-4-pentyl-2′-(prop-1-en-2-yl)-1′,2′,3′,4′-tetrahydro-[1,1′-biphenyl]-2-yl)oxy)carbonyl)cyclopropyl (2-(2-methoxyethoxy)ethyl) phosphate ammonium salt] displayed a solubility in “physchem” of more than 500 µM. The results for the half-life in data set [1] and in data set [2] were 0.4 h and more than 4 h, respectively.

As for `C=C(C)[C@@H]1CCC(C)=C[C@H]1c1c(O)cc(CCCCC)cc1OC(=O)OCCOP(=O)(O)O.N.N` [29a, (1′R,2′R)-6-hydroxy-5′-methyl-4-pentyl-2′-(prop-1-en-2-yl)-1′,2′,3′,4′-tetrahydro-[1,1′-biphenyl]-2-yl(2-(phosphonooxy)ethyl) carbonate di-ammonium salt], in “physchem”, the solubility was more than 500 µM. Further, the half-life in data set [1] is 0.7 h; in data set [2], 16.5 h.

As to `C=C(C)[C@@H]1CCC(C)=C[C@H]1c1c(O)cc(CCCCC)cc1OC(=O)OCCCOP(=O)(O)O.N.N` [29b, (1′R,2′R)-6-hydroxy-5′-methyl-4-pentyl-2′-(prop-1-en-2-yl)-1′,2′,3′,4′-tetrahydro-[1,1′-biphenyl]-2-yl(3-(phosphonooxy)propyl) carbonate di-ammonium salt], in “physchem”, the solubility is more than 500 µM. The values for the half-life in data set [1] and in data set [2] were 0.317 h and more than 4 h, respectively.

In the data set “physchem”, `C=C(C)[C@@H]1CCC(C)=C[C@H]1c1c(O)cc(CCCCC)cc1OC(=O)OCCCCOP(=O)(O)O.N.N` [29c, (1′R,2′R)-6-hydroxy-5′-methyl-4-pentyl-2′-(prop-1-en-2-yl)-1′,2′,3′,4′-tetrahydro-[1,1′-biphenyl]-2-yl(4-(phosphonooxy)butyl) carbonate di-ammonium salt] yielded a solubility of more than 500 µM. In addition, the half-life in data set [1] was 0.417 h; in data set [2], more than 4 h.

For the compound `C=C(C)[C@@H]1CCC(C)=C[C@H]1c1c(O)cc(CCCCC)cc1OC(=O)NCCOP(=O)(O)O.N.N` [38a, (1′R,2′R)-6-hydroxy-5′-methyl-4-pentyl-2′-(prop-1-en-2-yl)-1′,2′,3′,4′-tetrahydro-[1,1′-biphenyl]-2-yl(2-(phosphonooxy)ethyl)carbamate di-ammonium salt], in “physchem”, the solubility was more than 500 µM. Moreover, the half-life in data set [1] is 2.02 h; in data set [2], more than 4 h.

In “physchem”, `C=C(C)[C@@H]1CCC(C)=C[C@H]1c1c(O)cc(CCCCC)cc1OC(=O)N(C)CCOP(=O)(O)O.N.N` [38b, (1′R,2′R)-6-hydroxy-5′-methyl-4-pentyl-2′-(prop-1-en-2-yl)-1′,2′,3′,4′-tetrahydro-[1,1′-biphenyl]-2-yl methyl(2-(phosphonooxy)ethyl)carbamate di-ammonium salt] registered a solubility at 90 min of more than 500 µM. For the same compound, the half-life at 3 μM in data set [1] was 3.83 h; in data set [2] (read-out: T½ in human plasma), more than 4 h.

For the compound `C=C(C)[C@@H]1CCC(C)=C[C@H]1c1c(O)cc(CCCCC)cc1OC(=O)NCCCOP(=O)(O)O.N.N` [38c, (1′R,2′R)-6-hydroxy-5′-methyl-4-pentyl-2′-(prop-1-en-2-yl)-1′,2′,3′,4′-tetrahydro-[1,1′-biphenyl]-2-yl (3-(phosphonooxy)propyl)carbamate di-ammonium salt], the solubility in “physchem” was more than 500 µM. For the same compound, the half-life in data set [1] is 1.22 h; in data set [2], more than 4 h.

Consider `C=C(C)[C@@H]1CCC(C)=C[C@H]1c1c(O)cc(CCCCC)cc1OC(=O)C1(OP(=O)(O)OCc2ccccc2)CC1.N` [compound 8, benzyl (1-((((1′R,2′R)-6-hydroxy-5′-methyl-4-pentyl-2′-(prop-1-en-2-yl)-1′,2′,3′,4′-tetrahydro-[1,1′-biphenyl]-2-yl)oxy)carbonyl)cyclopropyl) phosphate ammonium salt], for which the solubility in “physchem” is 287 ± 13 µM. Also, the half-life in data set [1] is 0.383 h; in data set [2], 5.3 h.
